Columns and labels:
HCC1806 cells = assay: Cell proliferation assay (HCC1806); type: cell-based; details: Homo sapiens, 168 h, 7 days
PARP1 [1] = biological target: T1, PARP1 (Homo sapiens, UniProt P09874); assay: PARP1-enzyme assay (NAD/NADH-Glo biochemical assay); details: recombinant PARP1, NAD+ consumption
Target sequence in this assay (P09874 whole entry, species assumed): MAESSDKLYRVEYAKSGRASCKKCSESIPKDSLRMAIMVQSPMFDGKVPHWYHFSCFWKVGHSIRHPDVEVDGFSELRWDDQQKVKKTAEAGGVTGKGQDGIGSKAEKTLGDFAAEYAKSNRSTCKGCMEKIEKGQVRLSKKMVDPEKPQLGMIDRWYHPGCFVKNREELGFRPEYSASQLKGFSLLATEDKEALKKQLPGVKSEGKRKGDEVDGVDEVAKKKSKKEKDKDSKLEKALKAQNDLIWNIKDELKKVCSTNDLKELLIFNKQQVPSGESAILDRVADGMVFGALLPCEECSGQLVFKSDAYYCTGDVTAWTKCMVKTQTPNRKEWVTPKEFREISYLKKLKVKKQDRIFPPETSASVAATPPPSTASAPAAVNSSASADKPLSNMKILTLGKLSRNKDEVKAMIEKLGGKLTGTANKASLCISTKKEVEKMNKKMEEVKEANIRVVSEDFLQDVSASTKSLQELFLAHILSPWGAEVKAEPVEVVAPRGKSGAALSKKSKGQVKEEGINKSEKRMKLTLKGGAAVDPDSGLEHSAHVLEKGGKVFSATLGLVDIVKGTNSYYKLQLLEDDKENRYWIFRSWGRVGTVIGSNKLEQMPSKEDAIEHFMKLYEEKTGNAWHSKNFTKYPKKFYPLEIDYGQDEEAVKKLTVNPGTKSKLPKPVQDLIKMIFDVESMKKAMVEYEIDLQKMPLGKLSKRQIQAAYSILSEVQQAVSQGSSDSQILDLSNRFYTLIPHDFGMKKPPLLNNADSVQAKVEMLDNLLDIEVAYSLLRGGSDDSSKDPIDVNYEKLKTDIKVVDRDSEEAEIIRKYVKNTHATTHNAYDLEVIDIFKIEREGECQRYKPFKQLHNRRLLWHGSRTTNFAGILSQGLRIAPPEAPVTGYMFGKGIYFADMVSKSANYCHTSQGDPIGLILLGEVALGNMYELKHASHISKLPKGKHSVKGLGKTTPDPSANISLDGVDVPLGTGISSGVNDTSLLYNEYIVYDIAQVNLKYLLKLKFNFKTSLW

MDA-MB-436 cells = assay: Cell proliferation assay (MDA-MB-436); type: cell-based; details: Homo sapiens, 168 h, 7 days
PARP1 [2] = biological target: T1, PARP1; assay: PARP trapping assay in U2OS cells; type: cell-based; design: endogenous in cells; host or cells: U2OS; details: U2OS cells, MMS, 4 hrs; read-out: PARP Trapping (U2OS)
Method in brief: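 U2OS cells co-treated with compounds and MMS for 4 h, then soluble proteins extracted with 0.5% Triton X-100, MeOH-fixed and immunostained for PARP1. Chromatin-bound PARP1 quantified as AF488 intensity per DAPI-segmented nucleus; potencies reported as letter-code bins.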
Target sequence in this assay (P09874 whole entry): as the sequence (P09874 whole entry, species assumed) above

[3] = system: Poly/Mono-ADP Ribose in U2OS cells; assay: PAR in cell western assay (parylation) in U2OS cells; type: cell-based; details: Homo sapiens; U2OS cells, 6 hrs, 2 mM H2O2; read-out: Parylation (U2OS)
Method in brief: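 U2OS cells treated with compound for 6 h, then 2 mM H2O2 for 10 min to induce DNA damage. After methanol fixation, cells stained overnight at 4 °C with anti-mono/poly-ADP-ribose antibody and imaged by infrared in-cell western, normalized to CellTag 700; reported as % control inhibition.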

A2780 cells = assay: Cell proliferation assay (A2780); type: cell-based; details: Homo sapiens, 168 h, 7 days

IC50 (HCC1806 cells) [nM] | IC50 (PARP1 [1]) [nM] | IC50 (MDA-MB-436 cells) [nM] | IC50 (PARP1 [2]) [nM] | IC50 [3] [nM] | IC50 (A2780 cells) [nM] | Compound
10 to 100 | < 1 | < 10 | 100 to 1000 | 10 to 100 | 10 to 100 | CCc1cccc(-c2cnc(C(=O)NCCOCCNCC(=O)N3CCN(C(=O)c4cc(Cc5n[nH]c(=O)c6ccccc56)ccc4F)CC3)c(NC(C)=O)c2)c1 [Compound I-403]
10 to 100 | < 1 | < 10 | 10 to 100 | 10 to 100 | 10 to 100 | CCc1cccc(-c2cc(F)c(C(=O)N3CCC(CN4CCN(CC(=O)N5CCN(C(=O)c6cc(Cc7n[nH]c(=O)c8ccccc78)ccc6F)CC5)CC4)CC3)c(F)c2)c1 [Compound I-410]

The next lines start with the compound.

Compound | IC50 (HCC1806 cells) [nM] | IC50 (PARP1 [1]) [nM] | IC50 (MDA-MB-436 cells) [nM] | IC50 (PARP1 [2]) [nM] | IC50 [3] [nM] | IC50 (A2780 cells) [nM]
O=C(N[C@@H](C(=O)N1CCC(OC2CCN(CC(=O)N3CCN(C(=O)c4cc(Cc5n[nH]c(=O)c6ccccc56)ccc4F)CC3)CC2)CC1)C1CCCCC1)c1cccc(C2CCCN(C(=O)C3CC3)C2)c1F (stereo partly drawn) [Compound I-457] | 10 to 100 | < 1 | < 10 | 10 to 100 | 100 to 1000 | 10 to 100
CC(C)(C)OC(=O)N[C@@H](C(=O)N1CCC(OC2CCN(CC(=O)N3CCN(C(=O)c4cc(Cc5n[nH]c(=O)c6ccccc56)ccc4F)CC3)CC2)CC1)C1CCCCC1 [Compound I-787] | 10 to 100 | < 1 | < 10 | 10 to 100 | 10 to 100 | 10 to 100
O=C(N[C@@H](C(=O)N1CCN(CC2CCN(CC(=O)N3CCN(C(=O)c4cc(Cc5n[nH]c(=O)c6ccccc56)ccc4F)CC3)CC2)CC1)C1CCCCC1)c1cccc(C2CCCN(C(=O)C3CC3)C2)c1 (stereo partly drawn) [Compound I-962] | 100 to 1000 | < 1 | 10 to 100 | 100 to 1000 | 10 to 100 | 100 to 1000

— US20250127907A1, “PARP INHIBITORS” (Stablix, Inc., priority 2023, published 2025)
